For assay [1], the target named is Cel7A from Trichoderma harzianum. Details: method as in PMID 23114223. The note with it: hydrolysis of chloro-nitrophenyl lactoside; read-out: Ki value for cellobiose inhibition; cited from earlier work.
The target of assay [2] is T1, TrCel5A (Trichoderma reesei, UniProt P07982).
T1 construct: TrCel7B, TrCel5A, and TrCel12A were purified from the culture filtrate of Tr QM 9414; made in house; host or cells: Trichoderma reesei QM 9414 culture filtrate (native producer)
T1 sequence (P07982 22-418): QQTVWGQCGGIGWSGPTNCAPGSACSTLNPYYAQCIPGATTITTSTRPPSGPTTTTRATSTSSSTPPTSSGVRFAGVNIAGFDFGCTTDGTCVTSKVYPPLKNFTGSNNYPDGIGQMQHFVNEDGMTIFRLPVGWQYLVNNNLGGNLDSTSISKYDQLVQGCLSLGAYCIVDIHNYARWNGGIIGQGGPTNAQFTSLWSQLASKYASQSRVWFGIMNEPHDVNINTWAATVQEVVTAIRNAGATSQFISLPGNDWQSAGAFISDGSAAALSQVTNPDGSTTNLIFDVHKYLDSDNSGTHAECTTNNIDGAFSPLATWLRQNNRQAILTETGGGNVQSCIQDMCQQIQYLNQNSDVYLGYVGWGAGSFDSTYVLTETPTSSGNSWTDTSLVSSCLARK
Details: method as in doi:10.1016/j.tca.2005.01.025. The note with it: TrCel5A acting on cellohexaose; read-out: Ki value for cellobiose inhibition; cited from earlier work.

The target in assay [3] is AtCel7A (Acremonium thermophilum, UniProt A7WNT9). Put plainly: Inhibition of synergistic hydrolysis of 14C-BC by AtCel7A (supplemented with EG TrCel5A). Type of assay: biochemical. The note with it: 14C-BC substrate, read-out: IC50 for cellobiose. On the procedure:
To study the cellobiose inhibition of GH7 CBHs, the synergistic hydrolysis of ^14C-BC in the presence of added cellobiose was followed (Figure 3, Additional file 1: Figures S1 and S2). Because the cellobiose inhibition of the EG TrCel5A is much weaker than that of GH7 CBHs, the inhibition of synergistic hydrolysis apparently reflects the inhibition of CBH. The strength of cellobiose inhibition was analyzed using plots of (DCB/DCB=0) versus [cellobiose], where DCB and DCB=0 represent the degree of conversion of ^14C-BC in the presence and absence of cellobiose, respectively (Figure 4, Additional file 1: Figure S3). In the case of experiments without added cellobiose, the reactions were provided with N188BG to prevent the inhibition of the CBH by the cellobiose released during hydrolysis. Experiments with no added cellobiose and without BG were also conducted. […] Therefore, the concentration of the cellobiose released during hydrolysis was added to the concentration of externally supplied cellobiose in generating the plots in Figure 4 and Additional file 1: Figure S3. For the calculation of IC50 values, the data were first fitted to hyperbolae:
where [CB] is the concentration of cellobiose; [^14CBC] is the concentration of ^14C-BC used in the experiment; and C1, C2 and H are empirical constants. Equation 5 differs from Equation 1 by the presence of constant H. H was included to improve the fit and is a constant that accounts for the background radioactivity (the degree of conversion that is independent of CBH). The degree of conversion resulting from the activity of the EG was measured in a separate experiment (Additional file 1: Figure S4) and was subtracted from the degree of conversion resulting from the synergistic hydrolysis. Thus, in the case of complete inhibition, H should have a value of zero. […] Provided with the values of C1, C2 and H, the value of IC50 was calculated as follows: […]
Using the time course data measured in the presence and absence of cellobiose, the IC50 values were first found separately for each time point (Figure 4A). […]

Read-outs that look alike come from different tables or passages of the source.

Sequence of AtCel7A (A7WNT9 entry or part of it): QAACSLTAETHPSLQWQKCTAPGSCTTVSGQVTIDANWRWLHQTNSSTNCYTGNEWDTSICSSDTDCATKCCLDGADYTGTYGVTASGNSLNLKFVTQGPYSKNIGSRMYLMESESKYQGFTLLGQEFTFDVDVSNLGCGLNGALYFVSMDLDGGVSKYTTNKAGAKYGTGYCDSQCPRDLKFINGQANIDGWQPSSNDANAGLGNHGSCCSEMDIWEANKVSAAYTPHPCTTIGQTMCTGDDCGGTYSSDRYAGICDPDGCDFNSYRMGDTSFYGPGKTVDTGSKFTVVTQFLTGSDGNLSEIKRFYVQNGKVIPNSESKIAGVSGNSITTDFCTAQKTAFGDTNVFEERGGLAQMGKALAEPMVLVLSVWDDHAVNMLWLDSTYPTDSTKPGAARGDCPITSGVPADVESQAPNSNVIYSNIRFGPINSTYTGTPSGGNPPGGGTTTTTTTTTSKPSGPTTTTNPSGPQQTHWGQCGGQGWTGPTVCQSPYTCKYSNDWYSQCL

On to `O=C[C@H](O)[C@@H](O)[C@H](O[C@@H]1O[C@H](CO)[C@@H](O)[C@H](O)[C@H]1O)[C@H](O)CO` [cellobiose, Cellobiose], for which the Ki (as a rule, a dissociation constant, usually derived from enzyme kinetics or from competition with a known ligand) is 7200 µM in assay [1] and 424 µM in assay [2]. Besides, the IC50 (commonly the concentration at which inhibition is half-maximal) in assay [3] (25°C, IC50 decreased with hydrolysis time) amounted to 190 ± 100 µM; in assay [3] (35°C), 440 ± 100 µM; in assay [3] (50°C, IC50 increased with hydrolysis time) it was 2120 ± 1400 µM.

(Values after paper PMC3726336, “Product inhibition of cellulases studied with ^14C-labeled cellulose substrates” (Biotechnology for Biofuels, 2013).)
